This is an account of results in the kinase profiling compilation of Christmann-Franck et al. (2016).

Assay in all cases: KINOMEscan competition binding
Common to all, as to details: compound 10.0 µM

Experiment [1] concerns the target MYLK3 (human) (UniProt Q32MK0).
Experiment [2] deals with KIT (human) (UniProt P10721).
The subject of experiment [3] is EGFR (human), P00533 [G719S].
The target of experiment [4] is MET (human) (UniProt P08581).
Experiment [5] concerns EGFR (human), P00533 [746-750 del].
The test system of experiment [6] is ABL1 (human), P00519 [E255K].
Experiment [7] relates to EGFR (human), P00533 [P753S; 747-752 del].
For experiment [8], the target named is CDK2 (human) (UniProt P24941).
Experiment [9] has as its system EGFR (human), P00533 [L861Q].
In experiment [10] the target is PIK3CG (human) (UniProt P48736).
Sequence of PIK3CG (human) (P48736 whole entry, looked up): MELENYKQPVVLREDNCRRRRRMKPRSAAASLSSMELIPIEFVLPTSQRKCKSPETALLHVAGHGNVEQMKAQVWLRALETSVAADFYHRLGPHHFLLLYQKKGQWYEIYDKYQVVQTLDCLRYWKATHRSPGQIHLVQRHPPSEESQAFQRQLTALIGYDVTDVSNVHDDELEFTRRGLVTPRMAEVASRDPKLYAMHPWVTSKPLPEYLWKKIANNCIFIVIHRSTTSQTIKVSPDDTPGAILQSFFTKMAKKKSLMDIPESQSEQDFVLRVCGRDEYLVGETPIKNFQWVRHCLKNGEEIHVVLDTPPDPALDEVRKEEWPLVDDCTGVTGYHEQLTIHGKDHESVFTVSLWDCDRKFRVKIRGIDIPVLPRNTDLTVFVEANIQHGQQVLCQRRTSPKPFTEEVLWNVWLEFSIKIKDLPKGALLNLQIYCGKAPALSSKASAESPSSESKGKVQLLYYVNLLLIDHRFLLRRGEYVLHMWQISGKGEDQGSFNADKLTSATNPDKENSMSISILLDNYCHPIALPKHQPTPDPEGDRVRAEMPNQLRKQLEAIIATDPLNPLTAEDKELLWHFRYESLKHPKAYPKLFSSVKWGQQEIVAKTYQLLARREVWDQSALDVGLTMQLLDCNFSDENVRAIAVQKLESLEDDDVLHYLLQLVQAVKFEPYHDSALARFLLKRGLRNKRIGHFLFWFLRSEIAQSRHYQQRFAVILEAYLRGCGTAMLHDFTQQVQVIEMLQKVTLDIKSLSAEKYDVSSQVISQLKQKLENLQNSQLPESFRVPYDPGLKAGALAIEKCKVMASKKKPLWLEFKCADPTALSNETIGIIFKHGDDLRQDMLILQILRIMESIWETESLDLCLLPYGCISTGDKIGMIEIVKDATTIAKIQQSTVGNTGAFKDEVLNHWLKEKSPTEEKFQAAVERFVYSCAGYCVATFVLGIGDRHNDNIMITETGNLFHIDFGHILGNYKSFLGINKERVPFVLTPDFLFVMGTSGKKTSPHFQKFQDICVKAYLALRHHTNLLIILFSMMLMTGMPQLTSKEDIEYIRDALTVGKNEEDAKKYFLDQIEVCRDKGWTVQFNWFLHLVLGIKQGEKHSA
Experiment [11] addresses EGFR (human) (UniProt P00533).
The test system of experiment [12] is KIT (human), P10721 [V559D/T670I].
Sequence of KIT (human), P10721 [V559D/T670I] (P10721 whole entry V559D/T670I, looked up): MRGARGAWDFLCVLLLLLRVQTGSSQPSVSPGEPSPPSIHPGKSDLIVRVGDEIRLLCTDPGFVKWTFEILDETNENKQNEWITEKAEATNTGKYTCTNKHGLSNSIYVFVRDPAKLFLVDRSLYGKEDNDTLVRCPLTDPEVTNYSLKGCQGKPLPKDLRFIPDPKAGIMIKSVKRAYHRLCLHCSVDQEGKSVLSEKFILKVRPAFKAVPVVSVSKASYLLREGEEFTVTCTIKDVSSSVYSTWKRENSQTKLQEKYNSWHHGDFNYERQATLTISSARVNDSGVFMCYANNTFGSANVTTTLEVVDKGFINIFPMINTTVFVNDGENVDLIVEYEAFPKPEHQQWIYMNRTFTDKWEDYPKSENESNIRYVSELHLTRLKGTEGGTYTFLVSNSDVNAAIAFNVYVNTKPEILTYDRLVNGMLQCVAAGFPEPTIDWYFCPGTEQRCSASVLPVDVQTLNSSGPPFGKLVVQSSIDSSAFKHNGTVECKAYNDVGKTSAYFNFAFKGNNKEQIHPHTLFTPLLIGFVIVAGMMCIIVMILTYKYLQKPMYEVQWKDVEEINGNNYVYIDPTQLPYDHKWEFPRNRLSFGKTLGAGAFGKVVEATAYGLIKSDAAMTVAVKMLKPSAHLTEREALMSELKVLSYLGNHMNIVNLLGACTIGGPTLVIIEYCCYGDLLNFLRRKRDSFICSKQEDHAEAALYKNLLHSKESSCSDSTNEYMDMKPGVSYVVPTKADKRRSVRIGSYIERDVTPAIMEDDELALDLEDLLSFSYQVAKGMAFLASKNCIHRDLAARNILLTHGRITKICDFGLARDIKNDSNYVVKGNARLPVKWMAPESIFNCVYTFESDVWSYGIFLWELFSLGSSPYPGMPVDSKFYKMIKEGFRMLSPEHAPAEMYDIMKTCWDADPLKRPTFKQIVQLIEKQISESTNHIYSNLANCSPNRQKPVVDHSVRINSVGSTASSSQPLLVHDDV
For experiment [13], the target named is BRAF (human) (UniProt P15056).
Sequence of BRAF (human) (P15056 whole entry, looked up): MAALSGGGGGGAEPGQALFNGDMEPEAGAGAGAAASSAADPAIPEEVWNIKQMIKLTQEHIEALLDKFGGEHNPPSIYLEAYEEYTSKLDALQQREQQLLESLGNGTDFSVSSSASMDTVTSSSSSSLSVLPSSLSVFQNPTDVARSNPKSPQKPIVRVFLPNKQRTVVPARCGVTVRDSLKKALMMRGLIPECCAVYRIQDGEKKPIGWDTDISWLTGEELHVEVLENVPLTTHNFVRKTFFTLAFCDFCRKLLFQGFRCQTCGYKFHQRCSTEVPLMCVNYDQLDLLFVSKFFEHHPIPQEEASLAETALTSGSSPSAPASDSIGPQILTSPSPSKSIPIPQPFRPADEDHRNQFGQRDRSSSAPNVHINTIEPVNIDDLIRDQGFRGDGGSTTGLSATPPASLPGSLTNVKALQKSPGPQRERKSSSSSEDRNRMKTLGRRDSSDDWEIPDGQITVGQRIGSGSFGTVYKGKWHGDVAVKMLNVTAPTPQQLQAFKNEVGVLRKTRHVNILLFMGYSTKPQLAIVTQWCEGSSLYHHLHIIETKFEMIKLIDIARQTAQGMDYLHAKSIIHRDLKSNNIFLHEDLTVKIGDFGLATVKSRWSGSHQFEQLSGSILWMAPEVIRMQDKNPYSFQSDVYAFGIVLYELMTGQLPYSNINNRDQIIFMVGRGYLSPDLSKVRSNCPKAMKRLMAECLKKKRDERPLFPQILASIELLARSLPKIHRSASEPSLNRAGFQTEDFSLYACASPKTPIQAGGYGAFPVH
Experiment [14] concerns the target GRK1 (human) (UniProt Q15835).
Experiment [15] relates to PIK3CA (human), P42336 [Q546K].
The target of experiment [16] is SIK3 (human) (UniProt Q9Y2K2).
The target of experiment [17] is HIPK2 (human) (UniProt Q9H2X6).
The target of experiment [18] is PIK3C2G (human) (UniProt O75747).
Experiment [19] deals with NIM1 (human) (UniProt Q8IY84).
Experiment [20] has as its target MAP3K2 (human) (UniProt Q9Y2U5).
For experiment [21], the target named is STK39 (human) (UniProt Q9UEW8).
In experiment [22] the target is MAP3K1 (human) (UniProt Q13233).
Experiment [23] concerns the target MAP3K15 (human) (UniProt Q6ZN16).
The target of experiment [24] is MAP3K13 (human) (UniProt O43283).
For experiment [25], the target named is GRK4 (human) (UniProt P32298).
Experiment [26] has as its target DYRK1A (human) (UniProt Q13627).
Experiment [27] concerns the target PLK2 (human) (UniProt Q9NYY3).
In experiment [28] the test system is PIK3CA (human), P42336 [H1047Y].
Experiment [29] concerns the target YSK4 (human) (UniProt Q56UN5).
The subject of experiment [30] is PIK3CA (human), P42336 [C420R].

Sequence of KIT (human) (P10721 whole entry, looked up): as the sequence (P10721 whole entry V559D/T670I, looked up) above, with D559V, I670T counted along it
Sequence of MYLK3 (human) (Q32MK0 whole entry, looked up): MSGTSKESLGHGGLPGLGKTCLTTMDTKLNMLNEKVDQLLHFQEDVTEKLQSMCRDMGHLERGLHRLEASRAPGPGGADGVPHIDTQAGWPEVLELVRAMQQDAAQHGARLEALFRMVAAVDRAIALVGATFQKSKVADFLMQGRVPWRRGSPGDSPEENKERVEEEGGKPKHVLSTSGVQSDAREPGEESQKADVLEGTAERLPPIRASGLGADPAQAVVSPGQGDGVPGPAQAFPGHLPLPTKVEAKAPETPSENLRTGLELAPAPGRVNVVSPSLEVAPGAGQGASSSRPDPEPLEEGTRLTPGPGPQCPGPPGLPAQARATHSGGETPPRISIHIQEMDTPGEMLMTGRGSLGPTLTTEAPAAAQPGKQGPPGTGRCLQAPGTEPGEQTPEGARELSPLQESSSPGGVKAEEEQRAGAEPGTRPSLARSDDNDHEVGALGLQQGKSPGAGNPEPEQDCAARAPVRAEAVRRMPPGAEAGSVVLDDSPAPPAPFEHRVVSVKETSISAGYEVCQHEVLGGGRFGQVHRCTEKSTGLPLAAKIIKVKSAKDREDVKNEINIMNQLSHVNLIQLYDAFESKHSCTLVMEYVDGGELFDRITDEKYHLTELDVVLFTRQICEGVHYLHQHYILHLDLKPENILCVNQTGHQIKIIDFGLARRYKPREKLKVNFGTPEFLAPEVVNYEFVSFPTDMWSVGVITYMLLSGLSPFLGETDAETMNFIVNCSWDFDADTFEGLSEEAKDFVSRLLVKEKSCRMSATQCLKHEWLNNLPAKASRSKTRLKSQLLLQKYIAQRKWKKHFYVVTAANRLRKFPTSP
Sequence of MET (human) (P08581 whole entry, looked up): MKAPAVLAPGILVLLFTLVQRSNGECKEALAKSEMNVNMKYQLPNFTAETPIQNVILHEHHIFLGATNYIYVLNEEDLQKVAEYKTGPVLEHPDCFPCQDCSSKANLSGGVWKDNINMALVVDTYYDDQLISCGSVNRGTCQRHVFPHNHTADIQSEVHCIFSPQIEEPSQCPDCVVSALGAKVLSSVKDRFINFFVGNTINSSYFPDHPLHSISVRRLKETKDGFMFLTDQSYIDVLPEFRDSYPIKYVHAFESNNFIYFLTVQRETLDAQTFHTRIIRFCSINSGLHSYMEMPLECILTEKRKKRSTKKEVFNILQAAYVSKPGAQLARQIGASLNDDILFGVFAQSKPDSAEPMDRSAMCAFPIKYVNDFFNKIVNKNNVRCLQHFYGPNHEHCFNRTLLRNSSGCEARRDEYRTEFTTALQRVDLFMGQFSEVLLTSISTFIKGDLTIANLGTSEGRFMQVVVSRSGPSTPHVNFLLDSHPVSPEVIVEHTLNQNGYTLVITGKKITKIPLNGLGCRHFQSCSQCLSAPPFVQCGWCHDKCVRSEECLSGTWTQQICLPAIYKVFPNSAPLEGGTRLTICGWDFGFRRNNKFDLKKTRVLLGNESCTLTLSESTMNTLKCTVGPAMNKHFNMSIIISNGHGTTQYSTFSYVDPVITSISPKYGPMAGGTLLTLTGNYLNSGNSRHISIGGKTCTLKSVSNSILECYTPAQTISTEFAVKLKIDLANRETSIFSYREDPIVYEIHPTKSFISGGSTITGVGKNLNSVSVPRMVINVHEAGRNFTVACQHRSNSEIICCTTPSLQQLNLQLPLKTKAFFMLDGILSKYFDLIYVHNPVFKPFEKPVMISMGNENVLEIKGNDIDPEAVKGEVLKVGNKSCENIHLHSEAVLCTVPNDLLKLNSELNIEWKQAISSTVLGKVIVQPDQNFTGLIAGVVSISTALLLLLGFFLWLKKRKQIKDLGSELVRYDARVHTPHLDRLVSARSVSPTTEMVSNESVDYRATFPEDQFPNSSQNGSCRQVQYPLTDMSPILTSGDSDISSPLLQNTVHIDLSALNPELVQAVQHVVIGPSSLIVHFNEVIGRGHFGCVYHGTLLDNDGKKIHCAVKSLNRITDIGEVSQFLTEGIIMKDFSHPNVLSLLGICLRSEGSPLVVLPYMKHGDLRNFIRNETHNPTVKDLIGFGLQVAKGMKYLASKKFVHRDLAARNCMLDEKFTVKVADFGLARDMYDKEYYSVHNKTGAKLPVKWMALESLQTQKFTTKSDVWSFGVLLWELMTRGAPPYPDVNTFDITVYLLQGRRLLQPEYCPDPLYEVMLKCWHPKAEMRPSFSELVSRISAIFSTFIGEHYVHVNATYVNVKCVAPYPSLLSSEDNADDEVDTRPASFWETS

Turning to `COc1cc(C(=O)NC2CCN(C)CC2)ccc1Nc1ncc2c(n1)N(C1CCCC1)C(C)CC(=O)N2C` (stereo unspecified), the kinase still bound, per cent of control in experiment [1], in experiment [2], in experiment [3], in experiment [4], in [5] and in [6] was 100% each time. In addition, the kinase still bound, per cent of control in [7], in experiment [8], in experiment [9], in experiment [10], in [11] and in [12] was 100% in each case.
As to `CC[C@@H]1C(=O)N(C)c2cnc(Nc3ccc(C(=O)NC4CCN(C)CC4)cc3OC)nc2N1C1CCCC1`, the kinase still bound, per cent of control in experiment [2], in experiment [13], in [6], in experiment [8], in [10] and in experiment [12] was 100% throughout.
As for `Cc1ccc(C(=O)Nc2cccc(C(F)(F)F)c2)cc1Nc1cncc(C(N)=O)c1`, the kinase still bound, per cent of control in [1] is 100%; in [2] it was 0%; in [3], 100%; in [13] it was 2%; in experiment [4] it was 100%; in [5] it was 100%. Further, the kinase still bound, per cent of control in [6], in experiment [7], in experiment [8], in experiment [9], in [10] and in experiment [11] was 100% in each case. In [12], this molecule registered a kinase still bound, per cent of control of 100%.
`Cn1c(=O)n(-c2ccc(C(C)(C)C#N)cc2)c2c3cc(-c4cnc5ccccc5c4)ccc3ncc21`: the kinase still bound, per cent of control in experiment [1] was 100%; in experiment [2], 100%; in experiment [14], 100%; in [3] it was 100%; in [15], 3.8%; in [16], 100%. For the same molecule, the kinase still bound, per cent of control in [17] was determined as 100%; in experiment [13], 100%; in experiment [18], 4.4%; in [19], 100%; in experiment [20] it was 100%; in [5] it was 100%. For the same molecule, the kinase still bound, per cent of control in [21], in experiment [6], in experiment [7], in [22], in experiment [23] and in experiment [8] was 100% in each case. In addition, the kinase still bound, per cent of control came to 100% in experiment [24]; 100% in experiment [9]; 100% in [25]; 100% in [26]; 100% in experiment [27]; 6.2% in experiment [28]. For the same molecule, the kinase still bound, per cent of control in experiment [10] worked out at 23%; in experiment [29], 29%; in experiment [11], 100%; in [12], 100%.
For `C=CC(=O)Nc1cccc(Oc2nc(Nc3ccc(N4CCN(C)CC4)cc3OC)ncc2Cl)c1`, the kinase still bound, per cent of control is 100% in experiment [1]; 34% in experiment [2]; 0.3% in experiment [3]; 100% in experiment [13]; 20% in experiment [4]; 0.2% in [5]. Moreover, the kinase still bound, per cent of control in experiment [6] is 100%; in [7], 0.4%; in experiment [8], 100%; in experiment [9], 0.05%; in [10], 100%; in experiment [11], 0.1%. The same molecule had a kinase still bound, per cent of control in experiment [12] of 100%.
On to `COc1cc(C(=O)NC2CCN(C)CC2)ccc1Nc1ncc2c(n1)N(C1CCCC1)CCC(=O)N2C(C)C`, for which the kinase still bound, per cent of control in experiment [1], in [2], in [14], in experiment [3], in experiment [15] and in experiment [16] was 100% each time. For the same molecule, the kinase still bound, per cent of control in experiment [17], in [18], in [4], in [19], in experiment [20] and in experiment [30] was 100% each time. Also, the kinase still bound, per cent of control in [5], in experiment [21], in experiment [6], in [7], in [22] and in experiment [23] was 100% in each case. Further, the kinase still bound, per cent of control in experiment [8], in experiment [24], in [9], in experiment [25], in experiment [26] and in experiment [27] was 100% each time. Further, the kinase still bound, per cent of control in [28], in experiment [10], in [29], in experiment [11] and in [12] was 100% in each case.
